Patent US20160175223A1, “ANTI-AGING COMPOSITIONS COMPRISING BILE ACID-FATTY ACID CONJUGATES” (GALDERM THERAPEUTICS LTD., priority 2013, published 2016)

Assays:
human skin fibroblasts = assay: [3H] cholesterol efflux in skin fibroblasts; format: cell-based; conditions: 20 hours incubation, compared to untreated cells
Description: (§1) Steamchol was incubated with human skin fibroblasts for 20 hours to measure cholesterol loading in the presence of [^3H] cholesterol. After series of washing and adding efflux containing cholesterol acceptors, medium was collected and centrifuged and cell associated cholesterol was compared to effluxed cholesterol in the presence and absence of the similar FABAC. This research project also included quantification of mRNA of ABCA1 and direct measurement of ABCA1.
(§2) Similarly, cells were pre-incubated with [^3H] cholesterol, washed four times and then placed in an incubation medium with or without Aramchol for 20 hours. Following the incubation, radioactivity was measured separately in the medium and in the cells. Cholesterol efflux percentage was calculated as radioactivity in medium divided by the total radioactivity (cells+medium).

ABCA1 [1] = assay: Direct measurement of ABCA1 protein in skin fibroblasts; format: cell-based, human; conditions: efflux in the presence of FABAC, compared to untreated cells
Description: as §1, §2

ABCA1 [2] = assay: Taqman gene expression in Epiderm FT skin culture: ABCA1 mRNA; format: cell-based, human; conditions: 0.5% (5000 ug/mL) in DMSO, 24 hours post-application, vs DMSO control
Description: A full-thickness in vitro skin culture model, Epiderm FT (MatTek, MA), was treated with Steamchol. Steamchol in DMSO (0.5%, 5000 ug/mL) was applied to the surface of each test culture and cells were collected 24 hours post-application. Control cells were similarly treated with DMSO without Steamchol.
Tissues were collected in RNA later for gene expression analysis. Gene expression was analyzed using validated Taqman gene expression assays in Taqman Low Density Array (TLDA) format. 94 genes that regulate a variety of known functions in skin were analyzed including the ABCA1 and SCD1 genes. The experimental set up was conducted in a 96-well format using validated Taqman gene expression assays. Each gene was assayed in duplicates. Statistics were carried out using the StatMiner software v4.2 (unpaired t-tests, p≦0.05, N=4) to compare the Steamchol group to the DMSO control group.

[3] = tested on: Full-thickness Epiderm cultures (EFT-400, MatTek); assay: Previous viability assay; format: cell-based; conditions: concentrations of 40.0, 13.3, 4.4, 1.5 ug/mL
Text: (§3) Full-thickness Epiderm cultures (EFT-400, MatTek) were used to determine toxicity in response to topical application of a test material (Steamchol).

[4] = tested on: Full-thickness Epiderm cultures (EFT-400, MatTek); assay: Cytotoxicity assay (MTT) after topical application to full-thickness skin cultures; format: cell-based; conditions: 24-hour exposure; for Cell Viability: 10 μL topical, MTT, vs untreated control
Description: as §3
The test material was provided as a powder. Test solutions were prepared by adding the appropriate amount of powdered material to 1 mL DMSO. Lower concentrations were made by serial dilution with 100% DMSO. The final test material concentrations and treatments are listed below: • 2% Steamchol (20,000 ug/mL) • 1% Steamchol (10,000 ug/mL) • 0.1% Steamchol (1000 ug/mL) • 0.01% Steamchol (100 ug/mL) • vehicle control (100% DMSO) • untreated control
Full-thickness skin cultures (EFT-400) were maintained as required to ensure viability; the cultures were equilibrated at 37° C. and 5% CO2 for 24 hours prior to application of test materials. Test material was applied to the surface of each culture using sterile techniques (10 μL applied to each culture). Two cultures were assigned to each treatment group. Two EFT cultures served as an untreated control (also referred to as negative control in FIG. 2), and two other EFT cultures served as a positive control (100 μL 1% Triton X-100).
Following a 24-hour incubation period with the test material, cultures were processed for cell toxicity analysis using an MTT [(3-4,5-dimethylthiazole-2-yl)2,5-diphenyltetrazoliumbromide] assay (reagents purchased from MatTek). Viable tissues converted MTT into a blue formazan salt that was detected by measuring absorbance at a specific wavelength of light (A570). Percent viability was calculated by comparing the A570 reading of the test cultures to the A570 of the untreated control culture, using the following formula: [Treated A570/Untreated A570]*100.

SMILES: CCCCCCCCCCCCCCCCCCCC(=O)N[C@H]1CC[C@@]2(C)[C@@H](C1)C[C@@H](O)[C@@H]1[C@@H]2C[C@H](O)[C@]2(C)[C@@H]([C@H](C)CCC(=O)O)CC[C@@H]12 [Aramchol, 3β-arachidylamido-7α,12α, dihidroxy-5β-cholan-24-oic acid]
- Cholesterol efflux in fibroblasts (human skin fibroblasts): significantly enhanced
- ABCA1 protein concentration increase (ABCA1 [1]): approximately 2 fold

SMILES: CCCCCCCCCCCCCCCCCC(=O)N[C@H]1CC[C@@]2(C)[C@@H](C1)C[C@@H](O)[C@@H]1[C@@H]2C[C@H](O)[C@]2(C)[C@@H]([C@H](C)CCC(=O)O)CC[C@@H]12 [Steamchol, 3β-stearylamido-7α,12α, dihidroxy-5β-cholan-24-oic acid]
- Change in mRNA levels of ABCA1 (ABCA1 [2]): No significant change
- Toxicity in viability assay [3]: no toxicity was observed
- Cell Viability ([4]; 0.01% Steamchol (100 ug/mL) in DMSO): 100.41%
- Cell Viability ([4]; 0.1% Steamchol (1000 ug/mL) in DMSO): 99.98%
- Cell Viability ([4]; 1% Steamchol (10,000 ug/mL) in DMSO): 96.88%
- Cell Viability ([4]; 2% Steamchol (20,000 ug/mL) in DMSO): 93.89%
- Cell viability compared to the untreated control ([4]; all dilutions tested (0.01%-2% in DMSO)): ~100%
- Cholesterol efflux in fibroblasts (human skin fibroblasts): significantly enhanced
- ABCA1 protein concentration increase (ABCA1 [1]): approximately 2 fold
